Experimental data from ChEMBL document CHEMBL4308854, “Novel indole-thiazolidinone conjugates: Design, synthesis and whole-cell phenotypic evaluation as a novel class of antimicrobial agents” (Eur J Med Chem, 2018).
In brackets after ≈: the same amount, converted by molar mass.

How the values were obtained:
Staphylococcus aureus [1] = assay: Antibacterial activity against Staphylococcus aureus RCMB 010028 assessed as diameter of zone inhibition after 24 hrs by agar well diffusion assay; format: functional
Pseudomonas aeruginosa = assay: Antibacterial activity against Pseudomonas aeruginosa RCMB 010043 assessed as diameter of zone inhibition after 24 hrs by agar well diffusion assay; format: functional
Aspergillus fumigatus [2] = assay: Antifungal activity against Aspergillus fumigatus RCMB 02568 after 24 hrs by serial dilution method; format: functional; conditions: RCMB 02568, 24 h
Aspergillus fumigatus [3] = assay: Antifungal activity against Aspergillus fumigatus RCMB 02568 assessed as diameter of zone inhibition after 48 hrs by agar well diffusion assay; format: functional
Mycolicibacterium aurum = assay: Antitubercular activity against Mycobacterium aurum infected in mouse RAW264.7 cells measured after 48 hrs; format: functional
[4] = Cytotoxicity against mouse RAW264.7 cells; format: cell-based
MOLT-4 = assay: Growth inhibition of human MOLT4 cells assessed as cell growth at 10^-5 M incubated for 48 hrs by sulforhodamine B assay relative to control; format: cell-based; design: scale not given: the % may be the effect or the level left; conditions: molt-4, 48 h, 10 µM
RPMI-8226 = assay: Growth inhibition of human RPMI8226 cells assessed as cell growth at 10^-5 M incubated for 48 hrs by sulforhodamine B assay relative to control; format: cell-based; design: scale not given: the % may be the effect or the level left; conditions: rpmi-8226, 48 h, 10 µM
SR = assay: Growth inhibition of human SR cells assessed as cell growth at 10^-5 M incubated for 48 hrs by sulforhodamine B assay relative to control; format: cell-based; design: scale not given: the % may be the effect or the level left; conditions: 10 µM
HOP-62 = assay: Growth inhibition of human HOP62 cells assessed as cell growth at 10^-5 M incubated for 48 hrs by sulforhodamine B assay relative to control; format: cell-based; design: scale not given: the % may be the effect or the level left; conditions: hop-62, 48 h, 10 µM
HOP-92 = assay: Growth inhibition of human HOP92 cells assessed as cell growth at 10^-5 M incubated for 48 hrs by sulforhodamine B assay relative to control; format: cell-based; design: scale not given: the % may be the effect or the level left; conditions: hop-92, 48 h, 10 µM
NCI-H460 = assay: Growth inhibition of human NCI-H460 cells assessed as cell growth at 10^-5 M incubated for 48 hrs by sulforhodamine B assay relative to control; format: cell-based; design: scale not given: the % may be the effect or the level left; conditions: nci-h460, 48 h, 10 µM
COLO 205 = assay: Growth inhibition of human COLO205 cells assessed as cell growth at 10^-5 M incubated for 48 hrs by sulforhodamine B assay relative to control; format: cell-based; design: scale not given: the % may be the effect or the level left; conditions: colo 205, 48 h, 10 µM
HCT-116 = assay: Growth inhibition of human HCT116 cells assessed as cell growth at 10^-5 M incubated for 48 hrs by sulforhodamine B assay relative to control; format: cell-based; design: scale not given: the % may be the effect or the level left; conditions: hct-116, 48 h, 10 µM
HCT-15 = assay: Growth inhibition of human HCT15 cells assessed as cell growth at 10^-5 M incubated for 48 hrs by sulforhodamine B assay relative to control; format: cell-based; design: scale not given: the % may be the effect or the level left; conditions: hct-15, 48 h, 10 µM
HT-29 = assay: Growth inhibition of human HT-29 cells assessed as cell growth at 10^-5 M incubated for 48 hrs by sulforhodamine B assay relative to control; format: cell-based; design: scale not given: the % may be the effect or the level left; conditions: ht-29, 48 h, 10 µM
KM12 = assay: Growth inhibition of human KM12 cells assessed as cell growth at 10^-5 M incubated for 48 hrs by sulforhodamine B assay relative to control; format: cell-based; design: scale not given: the % may be the effect or the level left; conditions: km12, 48 h, 10 µM
SW-620 = assay: Growth inhibition of human SW620 cells assessed as cell growth at 10^-5 M incubated for 48 hrs by sulforhodamine B assay relative to control; format: cell-based; design: scale not given: the % may be the effect or the level left; conditions: sw-620, 48 h, 10 µM
SF-539 = assay: Growth inhibition of human SF539 cells assessed as cell growth at 10^-5 M incubated for 48 hrs by sulforhodamine B assay relative to control; format: cell-based; design: scale not given: the % may be the effect or the level left; conditions: sf-539, 48 h, 10 µM
SNB-19 = assay: Growth inhibition of human SNB19 cells assessed as cell growth at 10^-5 M incubated for 48 hrs by sulforhodamine B assay relative to control; format: cell-based; design: scale not given: the % may be the effect or the level left; conditions: snb-19, 48 h, 10 µM
SNB-75 = assay: Growth inhibition of human SNB75 cells assessed as cell growth at 10^-5 M incubated for 48 hrs by sulforhodamine B assay relative to control; format: cell-based; design: scale not given: the % may be the effect or the level left; conditions: snb-75, 48 h, 10 µM
LOX IMVI = assay: Growth inhibition of human LOXIMVI cells assessed as cell growth at 10^-5 M incubated for 48 hrs by sulforhodamine B assay relative to control; format: cell-based; design: scale not given: the % may be the effect or the level left; conditions: 10 µM
SK-MEL-2 = assay: Growth inhibition of human SK-MEL-2 cells assessed as cell growth at 10^-5 M incubated for 48 hrs by sulforhodamine B assay relative to control; format: cell-based; design: scale not given: the % may be the effect or the level left; conditions: sk-mel-2, 48 h, 10 µM
SK-MEL-28 = assay: Growth inhibition of human SK-MEL-28 cells assessed as cell growth at 10^-5 M incubated for 48 hrs by sulforhodamine B assay relative to control; format: cell-based; design: scale not given: the % may be the effect or the level left; conditions: sk-mel-28, 48 h, 10 µM
SK-MEL-5 = assay: Growth inhibition of human SK-MEL-5 cells assessed as cell growth at 10^-5 M incubated for 48 hrs by sulforhodamine B assay relative to control; format: cell-based; design: scale not given: the % may be the effect or the level left; conditions: sk-mel-5, 48 h, 10 µM
UACC-62 = assay: Growth inhibition of human UACC62 cells assessed as cell growth at 10^-5 M incubated for 48 hrs by sulforhodamine B assay relative to control; format: cell-based; design: scale not given: the % may be the effect or the level left; conditions: uacc-62, 48 h, 10 µM
OVCAR-5 = assay: Growth inhibition of human OVCAR5 cells assessed as cell growth at 10^-5 M incubated for 48 hrs by sulforhodamine B assay relative to control; format: cell-based; design: scale not given: the % may be the effect or the level left; conditions: ovcar-5, 48 h, 10 µM
NCI/ADR-RES = assay: Growth inhibition of human NCI/ADR-RES cells assessed as cell growth at 10^-5 M incubated for 48 hrs by sulforhodamine B assay relative to control; format: cell-based; design: scale not given: the % may be the effect or the level left; conditions: 10 µM
RXF 393 = assay: Growth inhibition of human RXF393 cells assessed as cell growth at 10^-5 M incubated for 48 hrs by sulforhodamine B assay relative to control; format: cell-based; design: scale not given: the % may be the effect or the level left; conditions: rxf 393, 48 h, 10 µM
MDA-MB-231 = assay: Growth inhibition of human MDA-MB-231 cells assessed as cell growth at 10^-5 M incubated for 48 hrs by sulforhodamine B assay relative to control; format: cell-based; design: scale not given: the % may be the effect or the level left; conditions: mda-mb-231, 48 h, 10 µM
Hs-578T = assay: Growth inhibition of human Hs 578T cells assessed as cell growth at 10^-5 M incubated for 48 hrs by sulforhodamine B assay relative to control; format: cell-based; design: scale not given: the % may be the effect or the level left; conditions: 10 µM
BT-549 = assay: Growth inhibition of human BT549 cells assessed as cell growth at 10^-5 M incubated for 48 hrs by sulforhodamine B assay relative to control; format: cell-based; design: scale not given: the % may be the effect or the level left; conditions: bt-549, 48 h, 10 µM
T47D = assay: Growth inhibition of human T47D cells assessed as cell growth at 10^-5 M incubated for 48 hrs by sulforhodamine B assay relative to control; format: cell-based; design: scale not given: the % may be the effect or the level left; conditions: 10 µM
MDA-MB-468 = assay: Growth inhibition of human MDA-MB-468 cells assessed as cell growth at 10^-5 M incubated for 48 hrs by sulforhodamine B assay relative to control; format: cell-based; design: scale not given: the % may be the effect or the level left; conditions: mda-mb-468, 48 h, 10 µM
[5] = test system: Mycobacterium tuberculosis; assay: Potency index, ratio of isoniazid MIC to compound MIC for antitubercular activity against Mycobacterium tuberculosis RCMB 010126 clinical isolate; format: functional
Staphylococcus aureus [6] = assay: Potency index, ratio of ciprofloxacin MIC to compound MIC for Staphylococcus aureus RCMB 010028; format: functional

Compound | diameter of the inhibition zone (DIZ) (Staphylococcus aureus [1]) | diameter of the inhibition zone (DIZ) (Pseudomonas aeruginosa) | MIC (Aspergillus fumigatus [2]) | diameter of the inhibition zone (DIZ) (Aspergillus fumigatus [3]) | MIC (Mycolicibacterium aurum) | GI50 [4] | Activity (MOLT-4) | Activity (RPMI-8226) | Activity (SR) | Activity (HOP-62) | Activity (HOP-92) | Activity (NCI-H460) | Activity (COLO 205) | Activity (HCT-116) | Activity (HCT-15) | Activity (HT-29) | Activity (KM12) | Activity (SW-620) | Activity (SF-539) | Activity (SNB-19) | further results
CC(=O)c1sc(/N=C2\NC(=O)/C(=C3/C(=O)N(C)c4ccc(Cl)cc43)S2)nc1C | 22.4 mm | 22.2 mm | 0.98 µg/mL (≈ 2.26 µM) | 22.2 mm | 25 µg/mL (≈ 57.7 µM) | 125 µg/mL (≈ 289 µM) | 105.36% | 110.22% | 115.03% | 116.23% | 95.24% | 113.18% | 108.28% | 94.04% | 101.97% | 98.45% | 94.43% | 119.01% | 94.05% | 98.6% | Activity (SNB-75): 104.77%; Activity (LOX IMVI): 88.14%; Activity (SK-MEL-2): 99.78%; Activity (SK-MEL-28): 99.13%; Activity (SK-MEL-5): 97.1%; Activity (UACC-62): 84.61%; Activity (OVCAR-5): 104.59%; Activity (NCI/ADR-RES): 99.92%; Activity (RXF 393): 106.08%; Activity (MDA-MB-231): 91.15%; Activity (Hs-578T): 115.73%; Activity (BT-549): 94.91%; Activity (T47D): 106.34%; Activity (MDA-MB-468): 94.2%; Ratio [5]: 2; Ratio (Staphylococcus aureus [6]): 2
CCOC(=O)c1sc(/N=C2\NC(=O)/C(=C3/C(=O)N(Cc4ccccc4)c4ccc(Cl)cc43)S2)nc1C | 22.5 mm | 22.3 mm | 1.95 µg/mL (≈ 3.62 µM) | 21.3 mm | 50 µg/mL (≈ 92.8 µM) | 62.5 µg/mL (≈ 116 µM) | 97.7% | 99.02% | 102.18% | 98.01% | 92.11% | 101.98% | 101.47% | 96.07% | 100.31% | 100.13% | 101.95% | 98.41% | 99.4% | 103.82% | Activity (SNB-75): 90.57%; Activity (LOX IMVI): 96.03%; Activity (SK-MEL-2): 100.66%; Activity (SK-MEL-28): 113.38%; Activity (SK-MEL-5): 101.5%; Activity (UACC-62): 103.68%; Activity (OVCAR-5): 112.65%; Activity (NCI/ADR-RES): 101.26%; Activity (RXF 393): 105.33%; Activity (MDA-MB-231): 100.41%; Activity (Hs-578T): 94.4%; Activity (BT-549): 103.71%; Activity (T47D): 96.84%; Activity (MDA-MB-468): 108.31%; Ratio [5]: 2; Ratio (Staphylococcus aureus [6]): 2
